Experimental data reported in patent US20230015478A1, “GLP-1 RECEPTOR AGONISTS HAVING IMPROVED PHARMACOLOGICAL AND DRUG DELIVERY PROPERTIES” (priority 2021, published 2023).
Where two headings read alike, the source gives them in different places. One block for each molecule: values may come before it. Numbered stars: 1 amine (or outer) side, 2 acyl side, 3 side chain; on linkers, the order of the positions; unused ones are H or OH. Square brackets hold non-standard residues; d marks the D form. Peptide text beside a SMILES is read from it. * marks the point of attachment. Dap(Nα-HOOC(CH2)16CO)OH = O=C(O)CCCCCCCCCCCCCCCCC(=O)N[C@@H](CN*)C(=O)O; Phe(3,4,5-F3) = N[C@@H](Cc1cc(F)c(F)c(F)c1)C(=O)O; Bip = N[C@@H](Cc1ccc(-c2ccccc2)cc1)C(=O)O; X1 = C[C@@](CCc1ccccc1)(N[*:1])C(=O)[*:2]; αMePhe(2-F) = C[C@](N)(Cc1ccccc1F)C(=O)O; Phe(2-F) = N[C@@H](Cc1ccccc1F)C(=O)O; hPhe = N[C@@H](CCc1ccccc1)C(=O)O; AEEA = NCCOCCOCC(=O)O; Aib = CC(C)(N)C(=O)O

Molecular target: T1, hGLP1 receptor (Homo sapiens, UniProt P43220)
T1 construct: expressed in transfected cells; host or cells: HEK (human embryonic kidney) cells co-expressing hGLP1 receptor and CRE-Luciferase
Assay: cAMP HTRF agonist assay in HEK cells co-expressing hGLP1 receptor and CRE-Luciferase
Assay type: cell-based
Summary of the method: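 HEK cells co-expressing hGLP1R and CRE-luciferase, 1000 cells/well in DPBS with 500 μM IBMX, exposed to peptides or exendin-4 reference for 30 min; 11-point 1:3 series from top 1.0 μM. cAMP measured by HTRF (665/615 nm) after 1 h at room temperature; EC50 from 4-parameter logistic fit.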

[1] = cAMP EC50, nM (0.1% albumin), Table 6, 0.1% albumin
[2] = cAMP EC50, nM (0.1% albumin), Table 1, 0.1% albumin
[3] = Table 5, 0% albumin, read-out: cAMP EC50, nM (0% albumin)
[4] = cAMP EC50, nM (0.1% albumin), Table 3, 0.1% albumin

T1 sequence (P43220 24-463): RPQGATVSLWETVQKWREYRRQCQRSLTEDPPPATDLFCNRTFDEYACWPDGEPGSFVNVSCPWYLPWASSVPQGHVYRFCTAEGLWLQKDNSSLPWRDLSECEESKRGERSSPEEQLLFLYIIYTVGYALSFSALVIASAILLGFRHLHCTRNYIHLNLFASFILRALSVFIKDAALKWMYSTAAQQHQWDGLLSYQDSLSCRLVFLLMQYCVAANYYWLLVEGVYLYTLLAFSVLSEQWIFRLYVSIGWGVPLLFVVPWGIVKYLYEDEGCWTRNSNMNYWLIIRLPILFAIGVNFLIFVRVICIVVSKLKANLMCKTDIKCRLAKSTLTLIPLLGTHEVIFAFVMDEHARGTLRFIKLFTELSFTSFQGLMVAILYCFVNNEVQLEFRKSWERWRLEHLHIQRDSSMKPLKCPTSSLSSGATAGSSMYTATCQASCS

EC50 [1]: 70.9 nM | fold lower potency than the parent peptide (1-4) (relative to parent 1-4): 15 fold
SMILES: C[C@@H](O)[C@H](NC(=O)CNC(=O)[C@H](CCC(=O)O)NC(=O)C(C)(C)NC(=O)[C@@H](N)Cc1c[nH]cn1)C(=O)N[C@@](C)(Cc1ccccc1F)C(=O)N[C@H](C(=O)N[C@@H](CO)C(=O)N[C@@H](CC(=O)O)C(=O)N[C@@H](Cc1ccc(-c2ccccc2)cc1)C(=O)N[C@@H](CCc1ccccc1)C(=O)NCCOCCOCC(=O)NCCOCCOCC(=O)NC[C@H](NC(=O)CCCCCCCCCCCCCCCCC(=O)O)C(=O)O)[C@@H](C)O [4-36, H2N-His-Aib-Glu-Gly-Thr-α-MePhe(2-F)-Thr-Ser-Asp-Bip-Hph-C(O)NH-RY2] (H-H[Aib]EGT[αMePhe(2-F)]TSD[Bip][hPhe][AEEA][AEEA]-{Dap(Nα-HOOC(CH2)16CO)OH})

EC50 [3]: 5.5 nM
SMILES: C[C@@H](O)[C@H](NC(=O)CNC(=O)[C@H](CCC(=O)O)NC(=O)C(C)(C)NC(=O)[C@@H](N)Cc1c[nH]cn1)C(=O)N[C@@](C)(Cc1ccccc1F)C(=O)N[C@H](C(=O)N[C@@H](CO)C(=O)N[C@@H](CC(=O)O)C(=O)N[C@@H](Cc1ccc(-c2ccccc2)cc1)C(=O)N[C@@](C)(CCc1ccccc1)C(N)=O)[C@@H](C)O [4-2, H2N-His-Aib-Glu-Gly-Thr-α-MePhe(2-F)-Thr-Ser-Asp-Bip-α-MeHph-C(O)NH2] (H-H[Aib]EGT[αMePhe(2-F)]TSD[Bip][X1]-NH2)

EC50 [1]: 67.2 nM
SMILES: C[C@@H](O)[C@H](NC(=O)CNC(=O)[C@H](CCC(=O)O)NC(=O)C(C)(C)NC(=O)[C@@H](N)Cc1c[nH]cn1)C(=O)N[C@@](C)(Cc1ccccc1F)C(=O)N[C@H](C(=O)N[C@@H](CO)C(=O)N[C@@H](CC(=O)O)C(=O)N[C@@H](Cc1ccc(-c2ccccc2)cc1)C(=O)N[C@@H](CCc1ccccc1)C(=O)NCCOCCOCC(=O)NCCOCCOCC(N)=O)[C@@H](C)O [4-35, H2N-His-Aib-Glu-Gly-Thr-α-MePhe(2-F)-Thr-Ser-Asp-Bip-Hph-C(O)NH-RY1] (H-H[Aib]EGT[αMePhe(2-F)]TSD[Bip][hPhe][AEEA][AEEA]-NH2)

Second part, the molecule before the results:

SMILES: C[C@@H](O)[C@H](NC(=O)CNC(=O)[C@H](CCC(=O)O)NC(=O)C(C)(C)NC(=O)[C@@H](N)Cc1c[nH]cn1)C(=O)N[C@H](Cc1ccccc1)C(=O)N[C@H](C(=O)N[C@@H](CO)C(=O)N[C@@H](CC(=O)O)C(=O)N[C@@H](Cc1ccc(-c2ccccc2)cc1)C(=O)N[C@@H](Cc1ccc(-c2ccccc2)cc1)C(N)=O)[C@@H](C)O [3-13, H2N-His-Aib-Glu-Gly-Thr-D-Phe-Thr-Ser-Asp-Bip-Bip-C(O)NH2] (H-H[Aib]EGT[dF]TSD[Bip][Bip]-NH2)
EC50 [2]: 57 nM

SMILES: C[C@H](NC(=O)[C@H](CO)NC(=O)[C@@H](NC(=O)[C@H](Cc1ccccc1F)NC(=O)[C@@H](NC(=O)CNC(=O)[C@H](CCC(=O)O)NC(=O)C(C)(C)NC(=O)[C@@H](N)Cc1c[nH]cn1)[C@@H](C)O)[C@@H](C)O)C(=O)N[C@@H](Cc1ccc(-c2ccccc2)cc1)C(=O)N[C@@H](Cc1ccc(-c2ccccc2)cc1)C(N)=O [3-27, H2N-His-Aib-Glu-Gly-Thr-Phe(2-F)-Thr-Ser-Ala-Bip-Bip-C(O)NH2] (H-H[Aib]EGT[Phe(2-F)]TSA[Bip][Bip]-NH2)
EC50 (cAMP EC50, nM (0.1% albumin), Table 2, 0.1% albumin): 67 nM

SMILES: C[C@@H](O)[C@H](NC(=O)CNC(=O)[C@H](CCC(=O)O)NC(=O)C(C)(C)NC(=O)[C@@H](N)Cc1c[nH]cn1)C(=O)N[C@@](C)(Cc1ccccc1F)C(=O)N[C@H](C(=O)N[C@@H](CO)C(=O)N[C@@H](CC(=O)O)C(=O)N[C@@H](Cc1ccc(-c2ccccc2)cc1)C(=O)N[C@@H](Cc1ccc(-c2ccccc2)cc1)C(N)=O)[C@@H](C)O [1-2, H2N-His-Aib-Glu-Gly-Thr-α-MePhe(2-F)-Thr-Ser-Asp-Bip-Bip-C(O)NH2] (H-H[Aib]EGT[αMePhe(2-F)]TSD[Bip][Bip]-NH2)
EC50 [3]: 0.09 nM | EC50 [2]: 0.09 nM | EC50 [4]: 0.09 nM | EC50 (cAMP EC50, nM (0.1% albumin), Table 4, 0.1% albumin): 0.09 nM | EC50 [1]: 0.09 nM

SMILES: C[C@@H](O)[C@H](NC(=O)CNC(=O)[C@H](CCC(=O)O)NC(=O)C(C)(C)NC(=O)C(C)(C)N)C(=O)N[C@@](C)(Cc1ccccc1F)C(=O)N[C@H](C(=O)N[C@@H](CO)C(=O)N[C@@H](CC(=O)O)C(=O)N[C@@H](Cc1ccc(-c2ccccc2)cc1)C(=O)N[C@@H](Cc1ccc(-c2ccccc2)cc1)C(N)=O)[C@@H](C)O [3-30, H2N-Aib-Aib-Glu-Gly-Thr-αMePhe(2-F)-Thr-Ser-Asp-Bip-Bip-C(O)NH2] (H-[Aib][Aib]EGT[αMePhe(2-F)]TSD[Bip][Bip]-NH2)
EC50 [4]: 2.7 nM

SMILES: C[C@@H](O)[C@H](NC(=O)CNC(=O)[C@H](CCC(=O)O)NC(=O)C(C)(C)NC(=O)[C@@H](N)Cc1c[nH]cn1)C(=O)N[C@@H](Cc1cc(F)c(F)c(F)c1)C(=O)N[C@H](C(=O)N[C@@H](CO)C(=O)N[C@@H](CC(=O)O)C(=O)N[C@@H](Cc1ccc(-c2ccccc2)cc1)C(=O)N[C@@H](Cc1ccc(-c2ccccc2)cc1)C(N)=O)[C@@H](C)O [3-9, H2N-His-Aib-Glu-Gly-Thr-Phe(3,4,5-F)-Thr-Ser-Asp-Bip-Bip-C(O)NH2] (H-H[Aib]EGT[Phe(3,4,5-F3)]TSD[Bip][Bip]-NH2)
EC50 [2]: 44.6 nM
